Results from patent US7897582B2, “Oligonucleotide compositions and methods for the modulation of the expression of B7 protein” (Isis Pharmaceuticals, Inc., priority 2003, dated 2011).
Strand notation (5' to 3'): a small letter for the sugar, then the base; units joined by * are phosphorothioate-linked, units joined directly phosphodiester-linked; [ ] holds rarer units or linkages, { } end groups; capitals alone tell only the bases. e = 2'-O-(2-methoxyethyl) (MOE); [5mC] = 5-methylcytosine; d = 2'-deoxy (DNA)

system: human B7.2 mRNA; experiment: Human B7.2 mRNA levels in THP-1 cells by quantitative real-time PCR (Example 27); format: cell-based; design: concentration or dose not given beside the values
Source text: In accordance with the present invention, an additional series of antisense compounds were designed to target different regions of the human B7.2 RNA, using published sequences (GenBank accession number U04343.1, incorporated herein as SEQ ID NO: 295, GenBank accession number BC040261.1, incorporated herein as SEQ ID NO: 296 and GenBank accession number NT—005543.12, a portion of which is incorporated herein as SEQ ID NO: 297). “Target site” indicates the first (5′-most) nucleotide number on the particular target sequence to which the compound binds. All compounds in Table 25 are chimeric oligonucleotides (“gapmers”) 20 nucleotides in length, composed of a central “gap” region consisting of ten 2′-deoxynucleotides, which is flanked on both sides (5′ and 3′ directions) by five-nucleotide “wings”. The wings are composed of 2′-methoxyethyl (2′-MOE)nucleotides. The internucleoside (backbone) linkages are phosphorothioate (P═S) throughout the oligonucleotide. All cytidine residues are 5-methylcytidines. The compounds were analyzed for their effect on human B7.2 mRNA levels in THP-1 cells by quantitative real-time PCR as described in other examples herein. Data are averages from three experiments. If present, “N.D.” indicates “no data”.

Row | Substance | % INHIB (inhibition of human B7.2 mRNA levels)
1 | 323643 (antisense eA*eT*e[5mC]*eA*eA*dA*dA*d[5mC]*dT*dT*dG*dT*dG*d[5mC]*dG*eG*e[5mC]*e[5mC]*e[5mC]*eA) [compound 323643] | 80%
2 | 323644 (antisense e[5mC]*e[5mC]*e[5mC]*eT*eT*dG*dT*d[5mC]*d[5mC]*dT*dT*dG*dA*dT*d[5mC]*eT*eG*eA*eA*eG) [compound 323644] | 71%
3 | 323645 (antisense eA*e[5mC]*eA*eA*eG*d[5mC]*d[5mC]*d[5mC]*dT*dT*dG*dT*d[5mC]*d[5mC]*dT*eT*eG*eA*eT*e[5mC]) [compound 323645] | 56%
4 | 323646 (antisense eT*eT*eG*eA*eT*dA*d[5mC]*dA*dA*dG*d[5mC]*d[5mC]*d[5mC]*dT*dT*eG*eT*e[5mC]*e[5mC]*eT) [compound 323646] | 33%
5 | 323647 (antisense eA*eT*eA*e[5mC]*eA*dT*dT*dG*dA*dT*dA*d[5mC]*dA*dA*dG*e[5mC]*e[5mC]*e[5mC]*eT*eT) [compound 323647] | 41%
6 | 323648 (antisense eT*eG*eG*eA*eT*dG*dA*dT*dA*d[5mC]*dA*dT*dT*dG*dA*eT*eA*e[5mC]*eA*eA) [compound 323648] | 31%
7 | 323649 (antisense eG*eA*eA*eT*eT*d[5mC]*dA*dT*d[5mC]*dT*dG*dG*dT*dG*dG*eA*eT*eG*e[5mC]*eG) [compound 323649] | 81%
8 | 323650 (antisense eG*eT*eT*e[5mC]*eA*dG*dA*dA*dT*dT*d[5mC]*dA*dT*d[5mC]*dT*eG*eG*eT*eG*eG) [compound 323650] | 92%
9 | 323651 (antisense eT*eG*eA*e[5mC]*eA*dG*dT*dT*d[5mC]*dA*dG*dA*dA*dT*dT*e[5mC]*eA*eT*e[5mC]*eT) [compound 323651] | 64%
10 | 323652 (antisense eA*eG*e[5mC]*eA*e[5mC]*dT*dG*dA*d[5mC]*dA*dG*dT*dT*d[5mC]*dA*eG*eA*eA*eT*eT) [compound 323652] | 87%
11 | 323653 (antisense eT*eA*eG*e[5mC]*eA*dA*dG*d[5mC]*dA*d[5mC]*dT*dG*dA*d[5mC]*dA*eG*eT*eT*e[5mC]*eA) [compound 323653] | 96%
12 | 323654 (antisense eT*eG*eA*eA*eG*dT*dT*dA*dG*d[5mC]*dA*dA*dG*d[5mC]*dA*e[5mC]*eT*eG*eA*e[5mC]) [compound 323654] | 87%
13 | 323655 (antisense eT*eT*eG*eA*e[5mC]*dT*dG*dA*dA*dG*dT*dT*dA*dG*d[5mC]*eA*eA*eG*e[5mC]*eA) [compound 323655] | 65%
14 | 323656 (antisense e[5mC]*eT*eA*eT*eT*dT*d[5mC]*dA*dG*dG*dT*dT*dG*dA*d[5mC]*eT*eG*eA*eA*eG) [compound 323656] | 76%
15 | 323657 (antisense eT*e[5mC]*eT*eG*eT*dT*dA*dT*dA*dT*dT*dA*dG*dA*dA*eA*eT*eT*eG*eG) [compound 323657] | 43%
16 | 323658 (antisense eG*e[5mC]*eA*eG*eG*dT*d[5mC]*dA*dA*dA*dT*dT*dT*dA*dT*eG*eT*eA*e[5mC]*eA) [compound 323658] | 36%
17 | 323659 (antisense eG*eT*eA*eT*eA*dG*dA*dT*dG*dA*dG*d[5mC]*dA*dG*dG*eT*e[5mC]*eA*eA*eA) [compound 323659] | 56%

Row | Substance | % INHIB (inhibition of human B7.2 mRNA levels)
18 | 323660 (antisense eG*eG*eG*eT*eA*dA*d[5mC]*d[5mC]*dG*dT*dG*dT*dA*dT*dA*eG*eA*eT*eG*eA) [compound 323660] | 71%
19 | 323661 (antisense eA*eG*eG*eT*eT*d[5mC]*dT*dG*dG*dG*dT*dA*dA*d[5mC]*d[5mC]*eG*eT*eG*eT*eA) [compound 323661] | 68%
20 | 323662 (antisense eT*eA*eG*e[5mC]*eA*dA*dA*dA*d[5mC]*dA*d[5mC]*dT*d[5mC]*dA*dT*e[5mC]*eT*eT*e[5mC]*eT) [compound 323662] | 22%
21 | 323663 (antisense eG*eT*eT*e[5mC]*eT*dT*dA*dG*d[5mC]*dA*dA*dA*dA*d[5mC]*dA*e[5mC]*eT*e[5mC]*eA*eT) [compound 323663] | 23%
22 | 323664 (antisense eA*eT*eT*e[5mC]*eT*dT*dG*dG*dT*dT*d[5mC]*dT*dT*dA*dG*e[5mC]*eA*eA*eA*eA) [compound 323664] | 35%
23 | 323665 (antisense eG*eA*eT*eA*eG*dT*dT*dG*dA*dA*dT*dT*d[5mC]*dT*dT*eG*eG*eT*eT*e[5mC]) [compound 323665] | 43%
24 | 323666 (antisense eA*e[5mC]*e[5mC]*eA*eT*d[5mC]*dA*dT*dA*d[5mC]*dT*d[5mC]*dG*dA*dT*eA*eG*eT*eT*eG) [compound 323666] | 71%
25 | 323667 (antisense eA*eT*e[5mC]*eT*eT*dG*dA*dG*dA*dT*dT*dT*d[5mC]*dT*dG*e[5mC]*eA*eT*eA*eA) [compound 323667] | 52%
26 | 323668 (antisense eA*e[5mC]*eA*eT*eT*dA*dT*d[5mC]*dT*dT*dG*dA*dG*dA*dT*eT*eT*e[5mC]*eT*eG) [compound 323668] | 39%
27 | 323669 (antisense e[5mC]*eG*eT*eA*e[5mC]*dA*dG*dT*dT*d[5mC]*dT*dG*dT*dG*dA*e[5mC]*eA*eT*eT*eA) [compound 323669] | 68%
28 | 323670 (antisense eA*eG*eA*e[5mC]*eA*dA*dG*d[5mC]*dT*dG*dA*dT*dG*dG*dA*eA*eA*e[5mC]*eG*eT) [compound 323670] | 19%
29 | 323671 (antisense eG*eA*eA*eA*e[5mC]*dA*dG*dA*d[5mC]*dA*dA*dG*d[5mC]*dT*dG*eA*eT*eG*eG*eA) [compound 323671] | 26%
30 | 323672 (antisense eG*eG*eA*eA*eT*dG*dA*dA*dA*d[5mC]*dA*dG*dA*d[5mC]*dA*eA*eG*e[5mC]*eT*eG) [compound 323672] | 33%
31 | 323673 (antisense e[5mC]*eA*eT*e[5mC]*eA*dG*dG*dG*dA*dA*dT*dG*dA*dA*dA*e[5mC]*eA*eG*eA*e[5mC]) [compound 323673] | 38%
32 | 323674 (antisense e[5mC]*eG*eT*eA*eA*d[5mC]*dA*dT*d[5mC]*dA*dG*dG*dG*dA*dA*eT*eG*eA*eA*eA) [compound 323674] | 47%
33 | 323675 (antisense eA*eG*e[5mC]*eT*e[5mC]*dT*dA*dT*dA*dG*dA*dG*dA*dA*dA*eG*eG*eT*eG*eA) [compound 323675] | 77%
